Several values for one entry are separate records, joined by “and”; a condition that tells them apart may be missing. Identical values can stand only once.
System: 596521-263-R-J1-PDC complex spheroid growth
Experiment: Anticancer human tumor 596521-263-R-J1-PDC patient-derived soft tissue sarcoma cell line growth inhibition [Asc]
Conditions: for viability, T/C: stronger effect = lower value
Method in brief: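 Complex spheroids combining tumor cells with HUVEC endothelial cells and human MSCs, at 37 degrees C, 5% CO2; agents tested alone or combined, half-log dilutions from at or near clinical Cmax, or 10 microM if Cmax unknown.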

[1] = curve of first compound, second compound 0.0316 µM
[2] = curve of first compound, second compound 0.1 µM
[3] = curve of first compound, second compound 0.316 µM
[4] = curve of first compound, second compound 1 µM
[5] = curve of first compound, second compound 3.16 µM
[6] = curve of first compound, second compound 10 µM
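Also: spheroids exposed to compounds for 7 days.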

**Q.** How did the IC50 [1] turn out when NC(=O)C(=Cn1cnc(-c2cc(C(F)(F)F)cc(C(F)(F)F)c2)n1)c1cncnc1 + Cc1c(S(C)(=O)=O)c(-c2cc(F)cc(N3CCN(c4ccc(NS(=O)(=O)c5ccc(NC(CCN6CCC(C(=O)OCCCP(=O)(O)O)CC6)CSc6ccccc6)c(S(=O)(=O)C(F)(F)F)c5)cc4)CC3)c2)c(-c2ccc(Cl)cc2)n1C(C)C was run?
**A.** 27.2 nM

**Q.** What about the IC50 [2] of the same compound?
**A.** 25.1 nM

**Q.** What about the IC50 [3] of the same compound?
**A.** 18.8 nM

**Q.** What about the IC50 [4] of the same compound?
**A.** 15.5 nM

**Q.** What about the IC50 [5] of the same compound?
**A.** 8.57 nM

**Q.** What about the IC50 [6] of the same compound?
**A.** < 0.949 nM

**Q.** And the viability, T/C (second compound 0.0316 µM, first compound 0.000949 µM)?
**A.** 98.4%

**Q.** And the viability, T/C (second compound 0.0316 µM, first compound 0.003 µM)?
**A.** 101%

**Q.** And the viability, T/C (second compound 0.0316 µM, first compound 0.00949 µM)?
**A.** 80.7%

**Q.** What about the viability, T/C (second compound 0.0316 µM, first compound 0.03 µM) of the same compound?
**A.** 49.4%

**Q.** What about the viability, T/C (second compound 0.0316 µM, first compound 0.0949 µM) of the same compound?
**A.** 10.3%

**Q.** And the viability, T/C (second compound 0.0316 µM, first compound 0.3 µM)?
**A.** 4.54%

**Q.** And the viability, T/C (second compound 0.1 µM, first compound 0.000949 µM)?
**A.** 84.2%

**Q.** And the viability, T/C (second compound 0.1 µM, first compound 0.003 µM)?
**A.** 94.9%

**Q.** And the viability, T/C (second compound 0.1 µM, first compound 0.00949 µM)?
**A.** 71.8%

**Q.** What about the viability, T/C (second compound 0.1 µM, first compound 0.03 µM) of the same compound?
**A.** 48.5%

**Q.** What about the viability, T/C (second compound 0.1 µM, first compound 0.0949 µM) of the same compound?
**A.** 6.86%

**Q.** What about the viability, T/C (second compound 0.1 µM, first compound 0.3 µM) of the same compound?
**A.** 2.64%

**Q.** What about the viability, T/C (second compound 0.316 µM, first compound 0.000949 µM) of the same compound?
**A.** 94.8%

**Q.** And the viability, T/C (second compound 0.316 µM, first compound 0.003 µM)?
**A.** 82.6%

**Q.** What about the viability, T/C (second compound 0.316 µM, first compound 0.00949 µM) of the same compound?
**A.** 71.9%

**Q.** What about the viability, T/C (second compound 0.316 µM, first compound 0.03 µM) of the same compound?
**A.** 36.9%

**Q.** And the viability, T/C (second compound 0.316 µM, first compound 0.0949 µM)?
**A.** 5.33%

**Q.** And the viability, T/C (second compound 0.316 µM, first compound 0.3 µM)?
**A.** 1.97%

**Q.** And the viability, T/C (second compound 1 µM, first compound 0.000949 µM)?
**A.** 76%

**Q.** What about the viability, T/C (second compound 1 µM, first compound 0.003 µM) of the same compound?
**A.** 80.1%

**Q.** And the viability, T/C (second compound 1 µM, first compound 0.00949 µM)?
**A.** 57.9%

**Q.** And the viability, T/C (second compound 1 µM, first compound 0.03 µM)?
**A.** 37.2%

**Q.** What about the viability, T/C (second compound 1 µM, first compound 0.0949 µM) of the same compound?
**A.** 3.95%

**Q.** What about the viability, T/C (second compound 1 µM, first compound 0.3 µM) of the same compound?
**A.** 1.71%

**Q.** And the viability, T/C (second compound 3.16 µM, first compound 0.000949 µM)?
**A.** 68.7%

**Q.** What about the viability, T/C (second compound 3.16 µM, first compound 0.003 µM) of the same compound?
**A.** 57.7%

**Q.** And the viability, T/C (second compound 3.16 µM, first compound 0.00949 µM)?
**A.** 50.6%

**Q.** And the viability, T/C (second compound 3.16 µM, first compound 0.03 µM)?
**A.** 21.3%

**Q.** What about the viability, T/C (second compound 3.16 µM, first compound 0.0949 µM) of the same compound?
**A.** 3.51%

**Q.** And the viability, T/C (second compound 3.16 µM, first compound 0.3 µM)?
**A.** 1.52%

**Q.** What about the viability, T/C (second compound 10 µM, first compound 0.000949 µM) of the same compound?
**A.** 47.4%

**Q.** And the viability, T/C (second compound 10 µM, first compound 0.003 µM)?
**A.** 51.3%

**Q.** What about the viability, T/C (second compound 10 µM, first compound 0.00949 µM) of the same compound?
**A.** 35.7%

**Q.** And the viability, T/C (second compound 10 µM, first compound 0.03 µM)?
**A.** 23.6%

**Q.** What about the viability, T/C (second compound 10 µM, first compound 0.0949 µM) of the same compound?
**A.** 3.04%

**Q.** And the viability, T/C (second compound 10 µM, first compound 0.3 µM)?
**A.** 1.13%

**Q.** Which viability, T/C (compound 0.0316 µM) does the source give for CNC(C)C(=O)NC1CN(S(=O)(=O)c2cccc(S(=O)(=O)N3CCC4CCC(C(=O)NC(c5ccccc5)c5ccccc5)N4C(=O)C(NC(=O)C(C)NC)C3)c2)CCC2CCC(C(=O)NC(c3ccccc3)c3ccccc3)N2C1=O (stereo not drawn) here?
**A.** 89.6% [middle of 6 runs]

**Q.** And the viability, T/C (compound 0.1 µM)?
**A.** 87.5% [middle of 6 runs]

**Q.** What about the viability, T/C (compound 1 µM) of the same compound?
**A.** 77.4% [middle of 6 runs]

**Q.** And the IC50 (curve of compound)?
**A.** > 1000 nM

**Q.** Which results are given for C#Cc1c(F)ccc2cc(O)cc(-c3ncc4c(N5CC6CCC(C5)N6)nc(OCC56CCCN5CC(F)C6)nc4c3F)c12 (stereo not drawn)?
**A.** viability, T/C (compound 0.0316 µM): 102% and 104% (2×); viability, T/C (compound 0.1 µM): 87% and 90.2% and 98.9%; viability, T/C (compound 0.316 µM): 99.2% and 109% and 98.2%; viability, T/C (compound 1 µM): 102% (2×) and 112%; viability, T/C (compound 3.16 µM): 100% and 94.5% and 103%; viability, T/C (compound 10 µM): 93.4% and 85.1% and 88.1%; IC50 (curve of compound): > 10000 nM

**Q.** For CCN1C(C(=O)NC23CCC(C(=O)O)(CC2)CC3)C(c2cccc(Cl)c2F)C2(C(=O)Nc3cc(Cl)ccc32)C12CCCCC2 (stereo not drawn), which viability, T/C (compound 0.00949 µM) is on record?
**A.** 103% [middle of 8 runs]

**Q.** And the viability, T/C (compound 0.03 µM)?
**A.** 101% [middle of 8 runs]

**Q.** What about the viability, T/C (compound 0.0949 µM) of the same compound?
**A.** 103% [middle of 8 runs]

**Q.** And the viability, T/C (compound 0.3 µM)?
**A.** 105% [middle of 8 runs]

**Q.** And the viability, T/C (compound 0.949 µM)?
**A.** 102% [middle of 8 runs]

**Q.** And the viability, T/C (compound 3 µM)?
**A.** 95.7% [middle of 8 runs]

**Q.** And the IC50 (compound alone, run of 11/07/2022)?
**A.** > 3000 nM

**Q.** And the IC50 (curve of compound)?
**A.** > 3000 nM

**Q.** For CNC(C)C(=O)NC1CN(S(=O)(=O)c2cccc(S(=O)(=O)N3CCC4CCC(C(=O)NC(c5ccccc5)c5ccccc5)N4C(=O)C(NC(=O)C(C)NC)C3)c2)CCC2CCC(C(=O)NC(c3ccccc3)c3ccccc3)N2C1=O (stereo not drawn) + Cc1c(S(C)(=O)=O)c(-c2cc(F)cc(N3CCN(c4ccc(NS(=O)(=O)c5ccc(NC(CCN6CCC(C(=O)OCCCP(=O)(O)O)CC6)CSc6ccccc6)c(S(=O)(=O)C(F)(F)F)c5)cc4)CC3)c2)c(-c2ccc(Cl)cc2)n1C(C)C, which IC50 [1] is on record?
**A.** > 1000 nM

**Q.** What about the IC50 [2] of the same compound?
**A.** > 1000 nM

**Q.** What about the IC50 [3] of the same compound?
**A.** > 1000 nM

**Q.** And the IC50 [4]?
**A.** > 1000 nM

**Q.** And the IC50 [5]?
**A.** 23.8 nM

**Q.** What about the IC50 [6] of the same compound?
**A.** < 3.16 nM

**Q.** What about the viability, T/C (second compound 0.0316 µM, first compound 0.00316 µM) of the same compound?
**A.** 84.3%

**Q.** What about the viability, T/C (second compound 0.0316 µM, first compound 0.01 µM) of the same compound?
**A.** 97.2%

**Q.** What about the viability, T/C (second compound 0.0316 µM, first compound 0.0316 µM) of the same compound?
**A.** 75.4%

**Q.** And the viability, T/C (second compound 0.0316 µM, first compound 0.1 µM)?
**A.** 84.7%

**Q.** What about the viability, T/C (second compound 0.0316 µM, first compound 0.316 µM) of the same compound?
**A.** 89.2%

**Q.** What about the viability, T/C (second compound 0.0316 µM, first compound 1 µM) of the same compound?
**A.** 75.2%

**Q.** What about the viability, T/C (second compound 0.1 µM, first compound 0.00316 µM) of the same compound?
**A.** 86.1%

**Q.** What about the viability, T/C (second compound 0.1 µM, first compound 0.01 µM) of the same compound?
**A.** 82.5%

**Q.** What about the viability, T/C (second compound 0.1 µM, first compound 0.0316 µM) of the same compound?
**A.** 82.1%

**Q.** What about the viability, T/C (second compound 0.1 µM, first compound 0.1 µM) of the same compound?
**A.** 83%

**Q.** And the viability, T/C (second compound 0.1 µM, first compound 0.316 µM)?
**A.** 71.9%

**Q.** What about the viability, T/C (second compound 0.1 µM, first compound 1 µM) of the same compound?
**A.** 69.1%

**Q.** What about the viability, T/C (second compound 0.316 µM, first compound 0.00316 µM) of the same compound?
**A.** 91.8%

**Q.** What about the viability, T/C (second compound 0.316 µM, first compound 0.01 µM) of the same compound?
**A.** 89.7%

**Q.** And the viability, T/C (second compound 0.316 µM, first compound 0.0316 µM)?
**A.** 70.2%

**Q.** And the viability, T/C (second compound 0.316 µM, first compound 0.1 µM)?
**A.** 70.1%

**Q.** What about the viability, T/C (second compound 0.316 µM, first compound 0.316 µM) of the same compound?
**A.** 70.9%

**Q.** And the viability, T/C (second compound 0.316 µM, first compound 1 µM)?
**A.** 56.1%

**Q.** And the viability, T/C (second compound 1 µM, first compound 0.00316 µM)?
**A.** 74.3%

**Q.** What about the viability, T/C (second compound 1 µM, first compound 0.01 µM) of the same compound?
**A.** 63.5%

**Q.** And the viability, T/C (second compound 1 µM, first compound 0.0316 µM)?
**A.** 63.9%

**Q.** What about the viability, T/C (second compound 1 µM, first compound 0.1 µM) of the same compound?
**A.** 64.3%

**Q.** And the viability, T/C (second compound 1 µM, first compound 0.316 µM)?
**A.** 59.4%

**Q.** What about the viability, T/C (second compound 1 µM, first compound 1 µM) of the same compound?
**A.** 49.5%

**Q.** What about the viability, T/C (second compound 3.16 µM, first compound 0.00316 µM) of the same compound?
**A.** 54.1%

**Q.** What about the viability, T/C (second compound 3.16 µM, first compound 0.01 µM) of the same compound?
**A.** 54%

**Q.** And the viability, T/C (second compound 3.16 µM, first compound 0.0316 µM)?
**A.** 51.8%

**Q.** And the viability, T/C (second compound 3.16 µM, first compound 0.1 µM)?
**A.** 42.4%

**Q.** And the viability, T/C (second compound 3.16 µM, first compound 0.316 µM)?
**A.** 35.6%

**Q.** What about the viability, T/C (second compound 3.16 µM, first compound 1 µM) of the same compound?
**A.** 32.3%

**Q.** And the viability, T/C (second compound 10 µM, first compound 0.00316 µM)?
**A.** 44.1%

**Q.** What about the viability, T/C (second compound 10 µM, first compound 0.01 µM) of the same compound?
**A.** 38.6%

**Q.** And the viability, T/C (second compound 10 µM, first compound 0.0316 µM)?
**A.** 37.1%

**Q.** And the viability, T/C (second compound 10 µM, first compound 0.1 µM)?
**A.** 34.2%

**Q.** And the viability, T/C (second compound 10 µM, first compound 0.316 µM)?
**A.** 27%

**Q.** What about the viability, T/C (second compound 10 µM, first compound 1 µM) of the same compound?
**A.** 20.8%
